Measurements: patent US20020193425A1, “Cancer chemopreventative compounds and compositions and methods of treating cancers” (priority 2001, published 2002)
≈ marks a conversion by molar mass, not a printed value.

Key:
Format in all cases: cell-based
[1] = test system: c-Myc oncoprotein, SUPB13; test: c-Myc oncoprotein expression, western blotting
Procedure: (§1) The expression of c-Myc was assessed by immunoblots as previously described. In brief, cells (10^6) were treated and harvested at various time intervals, and whole-cell pellets were lysed with detergent lysis buffer (1 ml/10^7 cells, 50 mM Tris-HCl buffer, pH 8.0, 150 mM NaCl, 1 mM DTT, 0.5 mM EDTA, 1% Nonidet® P40, 0.5% sodium deoxycholate, 0.1% sodium dodecylsulfate, 100 μg/ml phenylmethylsulfonyl fluoride, 1 μg/ml aprotinin, 2 μg/ml leupeptin and 100 μM sodium vanadate) to obtain protein lysates. Protein concentrations were quantified using a bicinchoninic acid kit. Since c-Myc is a labile protein, cell lysates were not frozen, but stored at 4° C., until all protein lysates were prepared for a particular cell line, and then western blots were performed immediately. Total protein ([…]) was separated by 10% SDS-PAGE, electroblotted to PVDF membranes, and blocked overnight with 5% nonfat dry milk. The membrane was incubated with a solution of the primary antibody (2.5 μg/ml), prepared in 1% blocking solution, for 2 h at room temperature, washed three-times for 15 min with PBS-T (PBS with 0.1%, v/v, Tween 20), and incubated with a 1:2500 dilution of horseradish peroxidase-conjugated secondary antibody for 30 min at 37° C. Blots were again washed three-times for 10 min each in PBS-T and developed by enhanced chemiluminescence (Amersham). Membranes were exposed to Kodak Biomax film and the resulting film was analyzed using Kodak 1D Image Analysis software. Membranes were then stripped and reprobed for the quantification of bactin.
(§2) Cells were treated with solvent (0.1% v/v DMSO, control), brusatol (25 ng/ml) or bruceantin (10 ng/ml) for 4 or 24 h, then analyzed by western blotting. Membranes were probed for c-Myc, and then stripped and probed for β-actin as an internal control.
(§3) Cells were treated with brusatol (25 ng/ml) or bruceantin (10 ng/ml) for 4 or 24 h, and then analyzed for c-Myc and β-actin expression using western blotting techniques. Results are expressed as percentage of c-Myc oncoprotein of control (0.1%, v/v, DMSO treated cells) values. Results were normalized relative to β-actin.

c-Myc oncoprotein, U937 = test: c-Myc oncoprotein expression, western blotting
Procedure: as §1, §2, §3

c-Myc oncoprotein, BV173 = test: c-Myc oncoprotein expression, western blotting
Procedure: as §1, §2, §3

[2] = test system: c-Myc oncoprotein, RS4;11; test: c-Myc oncoprotein expression, western blotting
Procedure: as §1, §2, §3

c-Myc oncoprotein, Reh = test: c-Myc oncoprotein expression, western blotting
Procedure: as §1, §2, §3

Daudi = test: Antiproliferative activity, [3H]thymidine incorporation; conditions: four days
Procedure: (§4) Cellular viability was monitored by Trypan blue exclusion.
(§5) ^bproliferation was assayed by [^3H]thymidine incorporation with quadruplicate samples, as described under “Materials and methods”.

Reh = test: as above; conditions: Homo sapiens, 96 h, four days, read-out: Antiproliferative Activity (IC50, ng/ml)
Procedure: as §4, §5

K562 = test: as above; conditions: Homo sapiens, 96 h, four days, read-out: Antiproliferative Activity (IC50, ng/ml)
Procedure: as §4, §5

[3] = test system: Peripheral Human Lymphocytes; test: as above; conditions: Lymphocyte, 72 h, three days, concanavalin A (0.4 μg/ml), read-out: Antiproliferative Activity (IC50, ng/ml)
Procedure: as §4, §5

BV173 = test: as above; conditions: four days
Procedure: as §4, §5

RS4;11 = test: as above; conditions: Homo sapiens, 96 h, four days, read-out: Antiproliferative Activity (IC50, ng/ml)
Procedure: as §4, §5

U937 = test: as above; conditions: four days
Procedure: as §4, §5

SUPB13 = test: as above; conditions: 96 h, four days, read-out: Antiproliferative Activity (IC50, ng/ml)
Procedure: as §4, §5

HL-60 = test: as above; conditions: Homo sapiens, 96 h, four days, read-out: Antiproliferative Activity (IC50, ng/ml)
Procedure: as §4, §5

NB4 = test: as above; conditions: four days
Procedure: as §4, §5

DHL-6 = test: as above; conditions: four days
Procedure: as §4, §5

Kasumi-1 = test: as above; conditions: Homo sapiens, 96 h, four days, read-out: Antiproliferative Activity (IC50, ng/ml)
Procedure: as §4, §5

SMILES	Antiproliferative Activity (IC50, ng/ml) (Daudi)	IC50 (Reh) [ng/mL]	IC50 (K562) [ng/mL]	IC50 [3] [ng/mL]	Antiproliferative Activity (IC50, ng/ml) (BV173)	IC50 (RS4;11) [ng/mL]	Antiproliferative Activity (IC50, ng/ml) (U937)	IC50 (SUPB13) [ng/mL]	IC50 (HL-60) [ng/mL]	Antiproliferative Activity (IC50, ng/ml) (NB4)	Antiproliferative Activity (IC50, ng/ml) (DHL-6)	IC50 (Kasumi-1) [ng/mL]	other results
COC(=O)[C@@]12OC[C@]34[C@H]([C@@H](O)[C@@H]1O)[C@@]1(C)CC(=O)C(O)=C(C)[C@@H]1C[C@H]3OC(=O)[C@H](OC(=O)C=C(C)C)[C@@H]24 [compound 1, brusatol]	No effect	37 ± 5.6 (≈ 0.0711 µM)	10 ± 0.2 (≈ 0.0192 µM)	7.5 ± 0.3 (≈ 0.0144 µM)	No effect	12.5 ± 0.6 (≈ 0.024 µM)	No effect	37 ± 1.9 (≈ 0.0711 µM)	25 ± 0.5 (≈ 0.048 µM)	No effect	No effect	7 ± 0.6 (≈ 0.0134 µM)	c-Myc oncoprotein, percentage of control ([1]; Brusatol (25 ng/ml), 4 h): 52%; c-Myc oncoprotein, percentage of control ([1]; Brusatol (25 ng/ml), 24 h): 41%; c-Myc oncoprotein, percentage of control (c-Myc oncoprotein, U937; Brusatol (25 ng/ml), 4 h): 5%; c-Myc oncoprotein, percentage of control (c-Myc oncoprotein, U937; Brusatol (25 ng/ml), 24 h): 12%; c-Myc oncoprotein, percentage of control (c-Myc oncoprotein, BV173; Brusatol (25 ng/ml), 4 h): 22%; c-Myc oncoprotein, percentage of control (c-Myc oncoprotein, BV173; Brusatol (25 ng/ml), 24 h): 41%; c-Myc oncoprotein, percentage of control ([2]; RS4,11, Brusatol (25 ng/ml), 24 h): 10%; c-Myc oncoprotein, percentage of control ([2]; RS4;11, Brusatol (25 ng/ml), 4 h): 20%; c-Myc oncoprotein, percentage of control (c-Myc oncoprotein, Reh; Brusatol (25 ng/ml), 4 h): 66%; c-Myc oncoprotein, percentage of control (c-Myc oncoprotein, Reh; Brusatol (25 ng/ml), 24 h): 32%
COC(=O)[C@@]12OC[C@]34[C@H]([C@@H](O)[C@@H]1O)[C@@]1(C)CC(=O)C(O)=C(C)[C@@H]1C[C@H]3OC(=O)[C@H](OC(=O)/C=C(\C)C(C)C)[C@@H]24 [compound 2, bruceantin]	No effect	12.5 ± 0.8 (≈ 0.0228 µM)	6 ± 0.1 (≈ 0.0109 µM)	3 ± 0.3 (≈ 0.00547 µM)	No effect	5.4 ± 0.9 (≈ 0.00984 µM)	No effect	10 ± 0.5 (≈ 0.0182 µM)	20 ± 0.1 (≈ 0.0365 µM)	No effect	No effect	3.2 ± 0.1 (≈ 0.00583 µM)	c-Myc oncoprotein, percentage of control ([1]; Bruceantin (10 ng/ml), 4 h): 42%; c-Myc oncoprotein, percentage of control ([1]; Bruceantin (10 ng/ml), 24 h): 63%; c-Myc oncoprotein, percentage of control (c-Myc oncoprotein, U937; Bruceantin (10 ng/ml), 4 h): 40%; c-Myc oncoprotein, percentage of control (c-Myc oncoprotein, U937; Bruceantin (10 ng/ml), 24 h): 44%; c-Myc oncoprotein, percentage of control (c-Myc oncoprotein, BV173; Bruceantin (10 ng/ml), 4 h): 28%; c-Myc oncoprotein, percentage of control (c-Myc oncoprotein, BV173; Bruceantin (10 ng/ml), 24 h): 12%; c-Myc oncoprotein, percentage of control ([2]; RS4;11, Bruceantin (10 ng/ml), 4 h): 140%; c-Myc oncoprotein, percentage of control ([2]; RS4;11, Bruceantin (10 ng/ml), 24 h): 6%; c-Myc oncoprotein, percentage of control (c-Myc oncoprotein, Reh; Bruceantin (10 ng/ml), 4 h): 44%; c-Myc oncoprotein, percentage of control (c-Myc oncoprotein, Reh; Bruceantin (10 ng/ml), 24 h): 40%
